Like-named read-outs stand apart in the source and are kept apart here. Marks after values point to notes of the source that are not given here.
What was measured:
food intake in the rat = assay: Food intake in food-deprived rats: single-drug dose-responses and isobolographic analysis; type: in vivo; details: PO, 18 h food-deprived rat, 30 min intake measured 1 h after drug; from logarithmic regressions; read-out: ED50, inhibition of food intake
Procedure: Male Sprague–Dawley rats (Harlan, San Diego, CA) weighing 250–350 g were used for behavioural studies. Upon arrival at the test facility, animals were triple housed within a holding room controlled for humidity, temperature, and light (lights off 1800–0600 hours). Rats received food (2018SX Teklad Rodent Diet) and water ad libitum unless stated otherwise. Over the course of all studies, rats were re-used up to four times, with at least one week of washout between tests. Rats were assigned to treatment groups pseudo-randomly from test to test. One week prior to initial drug testing, all rats were subject to a single food intake test which was identical to all subsequent drug tests, except that all rats received vehicle administration. Group size for all studies, including brain sampling, was eight.
Eighteen hours prior to food intake testing (1600 hours), food was removed from home cages. On the next day, animals were weighed and placed into cages with grid floors at 1000 hours, and allowed to acclimate to these cages for a 90-min period with free access to water and no food. At 1130 hours, rats were injected with compounds via oral gavage. Thirty minutes after injection (1200 hours), animals were allowed access to food. Food was then weighed at 30 min after food exposure (1 h after drug administration). Upon test conclusion, rats were returned to home cages with ad libitum access to food and water.
Doses were selected based upon previous in-house experience with these compounds and ascended in twofold steps. Two subsequent studies were run for each isobologram, with dose–responses of each compound pair run in combination with a fixed, low dose of the other (phentermine 1 mg/kg; AR630 1 mg/kg; dexfenfluramine 0.5 mg/kg; lorcaserin 1 mg/kg). To approximate the true experimental errors in these experiments, a bootstrapping with replacement approach was used (Huber [1981]; Launer and Wilkinson [1979]) in which five data sets were generated from random samples of the measured data points for both the individual dose–responses and for each drug/dose combination. […] A line of additivity with confidence limits was then drawn between the dose–responses of each compound alone.

[1] = Brain drug concentrations 60 min after single oral dose (LC-MS/MS); type: in vivo, rat; details: for concentration at 60 min: brain
Procedure: In vivo methods employed for pharmacokinetic studies were identical to those described for food intake studies except that after dosing, rats were not placed into new cages with grid floors. At 60 min after dosing (and 30 min after food access), rats were anesthetized with isoflurane, blood was collected via cardiac puncture, and brains were removed from the cranium. Blood samples were dispensed into sodium heparinized vials and capped and stored at 4 °C. Plasma was separated from formed elements in blood by centrifugation (10 min at 3,000×g) and frozen. Brains were rinsed with ice-cold phosphate-buffered saline, blotted dry, weighed, and frozen. Plasma and brain samples were stored at −80 °C prior to bioanalytical analysis.
Brain samples were thawed on ice, placed into 50 mL plastic conical tubes, and two volumes of purified water/gram of brain was added. Brains were homogenized using a mechanical variable speed tissue homogenizer; 50 μL of brain homogenate was transferred to a 1-mL plastic tube. A volume of acetonitrile (200 μL) containing internal standard was added to brain homogenate, mixed by vortex, and centrifuged (15 min at 3,700 rpm). […] Supernatants were analysed for lorcaserin, AR630, phentermine, dexfenfluramine, and the major metabolite of dexfenfluramine, norfenfluramine. Compound concentrations were determined using a LC-MS/MS method. Analytes were separated by reverse phase chromatography (Kinetex 3 × 30 mm, C18, 2.6 μm, 100 Å, HPLC Column, Phenomenex, Torrance, CA) using a binary gradient on a Shimadzu LC system (Shimadzu Corp., Columbia, MD). The gradient consisted of 0.1 % formic acid in water and 0.1 % formic acid in acetonitrile with a flow rate of 650 μL/min.

5-HT2C [2] = molecular target: T1, 5-HT2C (Homo sapiens, UniProt P28335); assay: Functional activity at 5-HT2C; type: biochemical; details: internally generated data
T1 sequence (P28335 33-458): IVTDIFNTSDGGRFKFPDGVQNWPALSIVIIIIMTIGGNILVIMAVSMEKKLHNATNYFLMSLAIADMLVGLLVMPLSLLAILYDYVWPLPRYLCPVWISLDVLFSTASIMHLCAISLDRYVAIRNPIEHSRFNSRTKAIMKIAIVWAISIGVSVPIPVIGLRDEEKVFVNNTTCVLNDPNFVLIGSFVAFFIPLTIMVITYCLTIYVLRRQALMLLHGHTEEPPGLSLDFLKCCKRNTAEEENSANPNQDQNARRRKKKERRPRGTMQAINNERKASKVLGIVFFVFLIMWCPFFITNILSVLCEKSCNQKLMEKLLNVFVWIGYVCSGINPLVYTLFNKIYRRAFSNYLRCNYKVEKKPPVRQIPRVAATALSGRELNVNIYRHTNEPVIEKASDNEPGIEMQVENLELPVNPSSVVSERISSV

5-HT2A [3] = molecular target: T2, 5-HT2A (Homo sapiens, UniProt P28223); assay: Functional activity at 5-HT2A; type: biochemical; details: internally generated data
T2 sequence (P28223 whole entry): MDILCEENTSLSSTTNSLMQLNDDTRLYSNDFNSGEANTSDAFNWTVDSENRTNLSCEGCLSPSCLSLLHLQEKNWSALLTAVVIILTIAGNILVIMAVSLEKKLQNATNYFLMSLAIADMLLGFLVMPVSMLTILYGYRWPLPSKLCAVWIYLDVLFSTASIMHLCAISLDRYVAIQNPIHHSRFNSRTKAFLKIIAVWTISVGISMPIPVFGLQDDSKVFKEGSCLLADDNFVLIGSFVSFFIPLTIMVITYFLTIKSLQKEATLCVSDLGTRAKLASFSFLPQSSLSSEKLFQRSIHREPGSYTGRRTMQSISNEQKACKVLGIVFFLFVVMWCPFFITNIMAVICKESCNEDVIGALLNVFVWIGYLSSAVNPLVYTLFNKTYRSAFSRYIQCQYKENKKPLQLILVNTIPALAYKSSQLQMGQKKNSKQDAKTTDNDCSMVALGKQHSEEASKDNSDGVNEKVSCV

5-HT2B [4] = molecular target: T3, 5-HT2B (Homo sapiens, UniProt P41595); assay: Functional activity at 5-HT2B; type: biochemical; details: internally generated data
T3 sequence (P41595 whole entry, species assumed): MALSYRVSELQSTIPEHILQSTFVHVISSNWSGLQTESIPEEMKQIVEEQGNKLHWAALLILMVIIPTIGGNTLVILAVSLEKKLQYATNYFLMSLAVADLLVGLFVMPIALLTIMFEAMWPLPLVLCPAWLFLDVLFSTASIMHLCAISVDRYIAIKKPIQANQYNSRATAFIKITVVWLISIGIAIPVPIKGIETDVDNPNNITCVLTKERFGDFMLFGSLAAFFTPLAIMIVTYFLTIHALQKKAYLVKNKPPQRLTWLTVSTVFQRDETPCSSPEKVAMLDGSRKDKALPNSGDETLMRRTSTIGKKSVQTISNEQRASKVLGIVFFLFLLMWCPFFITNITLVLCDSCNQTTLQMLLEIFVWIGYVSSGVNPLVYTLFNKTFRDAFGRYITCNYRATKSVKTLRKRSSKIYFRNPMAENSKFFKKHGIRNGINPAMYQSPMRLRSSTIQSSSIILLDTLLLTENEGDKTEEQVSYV

5-HT2C [5] = molecular target: T1, 5-HT2C; assay: 125I-DOI binding at 5-HT2C; details: internally generated data
5-HT2A [6] = molecular target: T2, 5-HT2A; assay: 125I-DOI binding at 5-HT2A; details: internally generated data
5-HT2B [7] = molecular target: T3, 5-HT2B; assay: 125I-DOI binding at 5-HT2B; details: internally generated data
[8] = when administered alone; cited from earlier work
[9] = combining topiramate with phentermine, humans; ref Qsymia Drug Label information; cited from earlier work
[10] = read-out: intrinsic activity (IA)

Which ED50 (food intake in the rat) does the source give for C[C@@H]1CNCCN1c1cc(Cl)ccc1F [AR630] here?
Its ED50 is 4.25 mg/kg.

And the “Fold-change in brain concentration, combination vs alone” value (shortened to “Fold-change in brain concentration”) ([1]; AR630 1 mg/kg PO with phentermine 1 mg/kg, 60 min, rat)?
Its value is 1.12.

What about the concentration at 60 min ([1]; Sprague-Dawley, rat, oral, AR630 1 mg/kg PO with phentermine 1 mg/kg, 60 min, rat, mean ± SEM, read-out: Brain concentration, combination) of the same molecule?
The concentration at 60 min was 92 ± 25 ng/g.

What about the concentration at 60 min ([1]; Sprague-Dawley, rat, po, 1 mg/kg, AR630 1 mg/kg PO alone, 60 min, rat, mean ± SEM, read-out: Brain concentration, alone) of the same molecule?
Its concentration at 60 min is 82 ± 14 ng/g.

And the EC50 (5-HT2C [2])?
The EC50 was 10 nM.

And the Emax (5-HT2C [2]; [10])?
Its Emax is 100%.

What about the EC50 (5-HT2A [3]) of the same molecule?
Its EC50 is 400 nM.

What about the Emax (5-HT2A [3]; [10]) of the same molecule?
The Emax was 60%.

And the EC50 (5-HT2B [4])?
Its EC50 is 1000 nM.

What about the Emax (5-HT2B [4]; [10]) of the same molecule?
The Emax was under 10%.

What about the Ki (5-HT2C [5]) of the same molecule?
Its Ki is 4 nM.

What about the Ki (5-HT2A [6]) of the same molecule?
The Ki was 120 nM.

What about the Ki (5-HT2B [7]) of the same molecule?
Its Ki is 100 nM.

Which results are given for CCN[C@@H](C)Cc1cccc(C(F)(F)F)c1 [Dexfenfluramine, (S)+-fenfluramine]?
ED50 (food intake in the rat): 1.44 mg/kg; concentration at 60 min ([1]; Sprague-Dawley, rat, oral, 0.5 mg/kg, dexfenfluramine 0.5 mg/kg PO alone, 60 min, rat, mean ± SEM, read-out: Brain concentration, alone): 130 ± 13 ng/g; concentration at 60 min ([1]; Sprague-Dawley, rat, oral, dexfenfluramine 0.5 mg/kg PO with phentermine 1 mg/kg, 60 min, rat, mean ± SEM, read-out: Brain concentration, combination): 141 ± 19 ng/g; Fold-change in brain concentration, combination vs alone ([1]; dexfenfluramine 0.5 mg/kg PO with phentermine 1 mg/kg, 60 min, rat): 1.08

With C[C@H]1CNCCc2ccc(Cl)cc21 [Lorcaserin] as the molecule, how does the ED50 (food intake in the rat) read?
The ED50 was 1.98 mg/kg.

What about the concentration at 60 min ([1]; Sprague-Dawley, rat, oral, 1 mg/kg, lorcaserin 1 mg/kg PO alone, 60 min, rat, mean ± SEM, read-out: Brain concentration, alone) of the same molecule?
Its concentration at 60 min is 1380 ng/g.

What about the concentration at 60 min ([1]; Sprague-Dawley, rat, oral, lorcaserin 1 mg/kg PO with phentermine 1 mg/kg, 60 min, rat, mean ± SEM, read-out: Brain concentration, combination) of the same molecule?
The concentration at 60 min was 1440 ng/g.

What about the “Fold-change in brain concentration” value ([1]; lorcaserin 1 mg/kg PO with phentermine 1 mg/kg, 60 min, rat) of the same molecule?
Its value is 1.05.

For CC(N)Cc1cccc(C(F)(F)F)c1 (centres unmarked) [Norfenfluramine, norfenfluramine], which “brain concentration of metabolite relative to parent dexfenfluramine” value ([1]; after dexfenfluramine PO, 60 min, rat) is on record?
The value was “approximately sixfold”.

What about the “Brain concentration, alone” value ([1]; metabolite norfenfluramine after dexfenfluramine 0.5 mg/kg PO alone, 60 min, rat, mean ± SEM) of the same molecule?
Its value is 805 ± 50 ng/g.

And the “Fold-change in brain concentration” value ([1]; metabolite norfenfluramine after dexfenfluramine 0.5 mg/kg PO with phentermine 1 mg/kg, 60 min, rat)?
The value was 0.94.

What about the “Brain concentration, combination” value ([1]; metabolite norfenfluramine after dexfenfluramine 0.5 mg/kg PO with phentermine 1 mg/kg, 60 min, rat, mean ± SEM) of the same molecule?
The value was 760 ± 27 ng/g.

Which results are given for CC(C)(N)Cc1ccccc1 [Phentermine]?
ED50 (food intake in the rat): 2.45 mg/kg; Kp at 60 min ([1]; Sprague-Dawley, brain/plasma, oral, phentermine dosed alone or in the various combinations, rat (data not shown), read-out: brain/plasma ratio): ~13; concentration at 60 min ([1]; Sprague-Dawley, rat, oral, 1 mg/kg, phentermine 1 mg/kg PO alone, 60 min, rat, AR630 study, mean ± SEM, read-out: Brain concentration, alone): 226 ± 32 ng/g; concentration at 60 min ([1]; Sprague-Dawley, rat, oral, 1 mg/kg, phentermine 1 mg/kg PO alone, 60 min, rat, dexfenfluramine study, mean ± SEM, read-out: Brain concentration, alone): 298 ± 29 ng/g; concentration at 60 min ([1]; Sprague-Dawley, rat, oral, 1 mg/kg, phentermine 1 mg/kg PO alone, 60 min, rat, lorcaserin study, mean ± SEM, read-out: Brain concentration, alone): 298 ± 29 ng/g; concentration at 60 min ([1]; Sprague-Dawley, rat, oral, phentermine 1 mg/kg PO with AR630 1 mg/kg, 60 min, rat, mean ± SEM, read-out: Brain concentration, combination): 866 ± 120 ng/g; concentration at 60 min ([1]; Sprague-Dawley, rat, oral, phentermine 1 mg/kg PO with dexfenfluramine 0.5 mg/kg, 60 min, rat, mean ± SEM, read-out: Brain concentration, combination): 787 ± 57 ng/g; concentration at 60 min ([1]; Sprague-Dawley, rat, oral, phentermine 1 mg/kg PO with lorcaserin 1 mg/kg, 60 min, rat, mean ± SEM, read-out: Brain concentration, combination): 335 ± 18 ng/g; Fold-change in brain concentration, combination vs alone ([1]; phentermine 1 mg/kg PO with AR630 1 mg/kg, 60 min, rat): 3.80**; Fold-change in brain concentration, combination vs alone ([1]; phentermine 1 mg/kg PO with AR630 1 mg/kg, 60 min, rat, listed as phentermine): 3.8; Fold-change in brain concentration, combination vs alone ([1]; phentermine 1 mg/kg PO with dexfenfluramine 0.5 mg/kg, 60 min, rat): 2.60**; Fold-change in brain concentration, combination vs alone ([1]; phentermine 1 mg/kg PO with dexfenfluramine 0.5 mg/kg, 60 min, rat, listed as phentermine): 2.6; Fold-change in brain concentration, combination vs alone ([1]; phentermine 1 mg/kg PO with lorcaserin 1 mg/kg, 60 min, rat): 1.12; Fold-change in brain concentration, combination vs alone ([1]; phentermine 1 mg/kg PO with lorcaserin 1 mg/kg, 60 min, rat, listed as phentermine): 1.1; fraction of dose excreted as unchanged phentermine in urine [8]: 70–80%; increase in phentermine area under the curve [9]: 42%

From PMC4425807, “Investigating interactions between phentermine, dexfenfluramine, and 5-HT2C agonists, on food intake in the rat” (Psychopharmacology, 2014)
